Experimental data as given in patent US20240398781A1, “SPIROCYCLIC CYCLIC MODULATORS OF CHOLESTEROL BIOSYNTHESIS AND THEIR USE FOR PROMOTING REMYELINATION” (GENENTECH, INC., priority 2021, published 2024).
Where two headings read alike, the source gives them in different places.

How the values were obtained:
[1] = biological target: human emopamil binding protein and human 7-dehydrocholesterol reductase co-expressing cells (hEBP-DHCR7 membrane) (Homo sapiens (Human), UniProt Q15125); assay: Radioligand filter binding assay on hEBP-DHCR7 membrane; details: [3H]-(S)-6-(2-Methyl-3-(6-(trifluoromethyl)pyridin-3-yl)propyl)-2-thia-6-azaspiro[3.4]octane 2,2-dioxide radioligand, HEK293 membrane co-expressing hEBP and hDHCR7
human emopamil binding protein and human 7-dehydrocholesterol reductase co-expressing cells (hEBP-DHCR7 membrane), sequence (Q15125 whole entry): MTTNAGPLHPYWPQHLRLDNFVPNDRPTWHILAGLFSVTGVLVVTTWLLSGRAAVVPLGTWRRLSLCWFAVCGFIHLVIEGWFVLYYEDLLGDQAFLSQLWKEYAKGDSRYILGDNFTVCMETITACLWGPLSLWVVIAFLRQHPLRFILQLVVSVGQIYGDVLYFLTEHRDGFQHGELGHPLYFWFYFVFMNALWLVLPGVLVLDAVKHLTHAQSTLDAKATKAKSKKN
Summary of the method: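 HEK293 cells transiently co-expressing human EBP and DHCR7 supplied whole-cell membranes (10 μg/well), incubated 3 h at 22 °C with [3H]-labelled spiro-octane dioxide ligand (added at 25 nM) and compound (0.06-5000 nM final, 8 doses, n=2). Bound ligand was collected on PEI-treated GF/B filters and counted by scintillation. IC50 was Hill-fitted from % inhibition and reported as Ki.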

EpiSC-derived OPCs = assay: In vitro phenotypic screening of OPCs (MBP staining, high-content imaging); type: cell-based, mouse; details: percentage of MBP+ oligodendrocytes, 3 days, 0.5 nM to 1000 nM, read-out: OPC EC50
Summary of the method: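 Readout: high-content imaging of MBP immunostaining around DAPI nuclei, giving percent oligodendrocytes, with EC50 from a Levenberg-Marquardt Hill fit. Epiblast stem cell-derived OPCs were plated on laminin at 150,000/cm^2 in growth-factor-free N2B27. They were exposed 3 days to an 8-point series, 0.5-1000 nM final, in two or more independent platings.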

Row | Compound | Ki [1] [nM] | EC50 (EpiSC-derived OPCs; Mus musculus, 72 h) [nM] | EC50 (EpiSC-derived OPCs) [nM]
1 | O=S1(=O)CC2(CCN([C@H]3CCN(c4ccc(C(F)(F)F)nc4)C3)C2)C1 (single isomer, unassigned) [9A*] | 58.3 | 86 | –
2 | CC(C)n1nc(C(F)(F)F)cc1[C@H]1CC[C@H](N2CCC3(C2)CS(=O)(=O)C3)C1 (single isomer, unassigned) [10A*] | 18.7 | 18 | –
3 | CC(C)n1nc(C(F)(F)F)cc1[C@H]1CC[C@@H](N2CCC3(C2)CS(=O)(=O)C3)C1 (single isomer, unassigned) [10B*] | 21.3 | 20 | –
4 | CC(C)n1nc(-c2cncc(C(F)(F)F)c2)cc1[C@H]1CC[C@@H](N2CCC3(C2)CS(=O)(=O)C3)C1 (single isomer, unassigned) [13A*] | 6.9 | 1.3 | –
5 | CC(C)n1nc(-c2ccc(C(F)(F)F)nc2)nc1[C@H]1CC[C@H](N2CCC3(C2)CS(=O)(=O)C3)C1 (single isomer, unassigned) [17B*] | 36 | 22 | –
6 | CC(C)n1nc(-c2ccc(C(F)(F)F)nc2)nc1[C@H]1CC[C@@H](N2CCC3(C2)CS(=O)(=O)C3)C1 (single isomer, unassigned) [17D*] | 64 | 14 | –
7 | CC(C)n1nc(C2CC2)nc1[C@@H]1CC[C@H](N2CCC3(C2)CS(=O)(=O)C3)C1 (single isomer, unassigned) [18A*] | 960 | 390 | –
8 | CC(C)n1nc(C2CC2)nc1[C@H]1CC[C@H](N2CCC3(C2)CS(=O)(=O)C3)C1 (single isomer, unassigned) [18B*, 6-(3-(3-cyclopropyl-1-isopropyl-1H-1,2,4-triazol-5-yl)cyclopentyl)-2-thia-6-azaspiro[3.4]octane 2,2-dioxide] | 650 | 390 | –
9 | CC(C)n1nc(C2CC2)nc1[C@@H]1CC[C@@H](N2CCC3(C2)CS(=O)(=O)C3)C1 (single isomer, unassigned) [18C*] | 811 | 240 | –
10 | CC(C)n1nc(C2CC2)nc1[C@H]1CC[C@@H](N2CCC3(C2)CS(=O)(=O)C3)C1 (single isomer, unassigned) [18D*, 6-(3-(3-cyclopropyl-1-isopropyl-1H-1,2,4-triazol-5-yl)cyclopentyl)-2-thia-6-azaspiro[3.4]octane 2,2-dioxide] | 1180 | 430 | –
11 | CC(C)n1cc(C(F)(F)F)nc1[C@@H]1CC[C@@H](N2CCC3(C2)CS(=O)(=O)C3)C1 (single isomer, unassigned) [20B*] | 130 | 340 | –
12 | CC(C)n1cc(C(F)(F)F)nc1[C@@H]1CC[C@H](N2CCC3(C2)CS(=O)(=O)C3)C1 (single isomer, unassigned) [20D*] | 39 | 260 | –
13 | O=S1(=O)CC2(CCN([C@@H]3CCCN(c4ccc(C(F)(F)F)cc4)C3)C2)C1 (single isomer, unassigned) [22A*] | 14 | 9.5 | –
14 | O=S1(=O)CC2(CCN([C@H]3CCCN(c4ccc(C(F)(F)F)cc4)C3)C2)C1 (single isomer, unassigned) [22B*] | 58 | 110 | –
15 | Cn1nc(C(F)(F)F)cc1[C@H]1CC[C@H](N2CC[C@@]3(CCS(=O)(=O)C3)C2)CC1 (single isomer, unassigned) [27A*] | 260 | – | 53
16 | Cn1nc(C(F)(F)F)cc1[C@H]1CC[C@H](N2CC[C@]3(CCS(=O)(=O)C3)C2)CC1 (single isomer, unassigned) [27B*] | 180 | – | 130
17 | Cn1nc(C(F)(F)F)cc1[C@H]1CC[C@@H](N2CC[C@]3(CCS(=O)(=O)C3)C2)CC1 (single isomer, unassigned) [38A*] | 82 | 200 | –
18 | O=S1(=O)CC2(CCN([C@H]3CC[C@@H](c4ccc(C(F)(F)F)nc4)C3)C2)C1 (single isomer, unassigned) [Compound 11A, (Cis)-6-(3-(6-(Trifluoromethyl)pyridin-3-yl)cyclopentyl)-2-thia-6-azaspiro[3.4]octane 2,2-dioxide] | 37.8 | 160 | –
19 | O=S1(=O)CC2(CCN([C@H]3CO[C@@H](c4ccc(C(F)(F)F)cc4)C3)C2)C1 (stereo in doubt) [19A*, 6-((3R,5R)-5-(4-(Trifluoromethyl)phenyl)tetrahydrofuran-3-yl)-2-thia-6-azaspiro[3.4]octane 2,2-dioxide] | 21 | 140 | –
20 | O=S1(=O)CC2(CCN([C@@H]3CO[C@@H](c4ccc(C(F)(F)F)cc4)C3)C2)C1 (stereo in doubt) [19B*, 6-((3S,5R)-5-(4-(trifluoromethyl)phenyl)tetrahydrofuran-3-yl)-2-thia-6-azaspiro[3.4]octane 2,2-dioxide] | 20 | 49 | –
21 | CCn1nc(-c2ccc(C(F)(F)F)nc2)nc1[C@H]1CC[C@H](N2CCC3(C2)CS(=O)(=O)C3)CC1 [36A*, 6-((1r,4r)-4-(1-Ethyl-3-(6-(trifluoromethyl)pyridin-3-yl)-1H-1,2,4-triazol-5-yl)cyclohexyl)-2-thia-6-azaspiro[3.4]octane 2,2-dioxide] | 61 | 73 | –
22 | CCn1nc(-c2ccc(C(F)(F)F)nc2)nc1[C@H]1CC[C@@H](N2CCC3(C2)CS(=O)(=O)C3)CC1 [36B*, 6-((1s,4s)-4-(1-ethyl-3-(6-(trifluoromethyl)pyridin-3-yl)-1H-1,2,4-triazol-5-yl)cyclohexyl)-2-thia-6-azaspiro[3.4]octane 2,2-dioxide] | 260 | 72 | –

Further compounds by falling Ki [1], results first:

Row | Ki [1] [nM] | EC50 (EpiSC-derived OPCs; Mus musculus, 72 h) [nM] | EC50 (EpiSC-derived OPCs) [nM] | Compound
23 | 530 | > 1000 | – | CC(C)n1cc(C(F)(F)F)nc1[C@H]1CC[C@H](N2CCC3(C2)CS(=O)(=O)C3)C1 (single isomer, unassigned) [20A*]
24 | 420 | 660 | – | CC(C)n1cc(C(F)(F)F)nc1[C@H]1CC[C@@H](N2CCC3(C2)CS(=O)(=O)C3)C1 (single isomer, unassigned) [20C*]
25 | 260 | – | 50 | Cn1nc(C(F)(F)F)cc1[C@H]1CC[C@H](N2CC[C@]3(CCS(=O)(=O)C3)C2)CC1 (single isomer, unassigned) [38C*]
26 | 245 | > 1000 | – | O=S1(=O)CC2(CCN([C@@H]3CCN(c4ccc(C(F)(F)F)nc4)C3)C2)C1 (single isomer, unassigned) [9B*]
27 | 80 | – | 200 | Cn1nc(C(F)(F)F)cc1[C@H]1CC[C@H](N2CC[C@@]3(CCS(=O)(=O)C3)C2)CC1 (single isomer, unassigned) [38D*]
28 | 50 | 400 | – | Cn1nc(C(F)(F)F)cc1[C@H]1CC[C@@H](N2CC[C@@]3(CCS(=O)(=O)C3)C2)CC1 (single isomer, unassigned) [38B*]
29 | 40 | 280 | – | O=S1(=O)CC2(CCN(C3CC[C@H](c4ccc(C(F)(F)F)nc4)C3)C2)C1 (single isomer, unassigned) [11D*]
30 | 35.9 | 35 | – | O=S1(=O)CC2(CCN([C@@H]3CC[C@@H](c4ccc(C(F)(F)F)nc4)C3)C2)C1 (single isomer, unassigned) [Compound 11B, (Trans)-6-(3-(6-(Trifluoromethyl)pyridin-3-yl)cyclopentyl)-2-thia-6-azaspiro[3.4]octane 2,2-dioxide]
31 | 35 | 24 | – | O=S1(=O)CC2(CCN([C@@H]3CC[C@H](c4ccc(C(F)(F)F)nc4)C3)C2)C1 (single isomer, unassigned) [11C*]
32 | 33 | 160 | – | O=S1(=O)CC2(CCN([C@H]3CO[C@H](c4ccc(C(F)(F)F)cc4)C3)C2)C1 (stereo in doubt) [19D*, 6-((3R,5S)-5-(4-(trifluoromethyl)phenyl)tetrahydrofuran-3-yl)-2-thia-6-azaspiro[3.4]octane 2,2-dioxide]
33 | 26.6 | 11 | – | CC(C)n1nc(C(F)(F)F)cc1[C@@H]1CC[C@H](N2CCC3(C2)CS(=O)(=O)C3)C1 (single isomer, unassigned) [10C*]
34 | 25 | 18 | – | Cn1nc(C(F)(F)F)cc1[C@H]1CC[C@H](N2CCC[C@@]3(CCS(=O)(=O)C3)C2)CC1 (single isomer, unassigned) [26A*]
35 | 23.5 | 21 | – | CC(C)n1nc(-c2cncc(C(F)(F)F)c2)cc1[C@@H]1CC[C@@H](N2CCC3(C2)CS(=O)(=O)C3)C1 (single isomer, unassigned) [13C*]
36 | 19 | 2.2 | – | CC(C)n1nc(-c2cncc(C(F)(F)F)c2)cc1[C@H]1CC[C@H](N2CCC3(C2)CS(=O)(=O)C3)C1 (single isomer, unassigned) [13D*]
37 | 18 | 270 | – | O=S1(=O)CC2(CCN([C@@H]3CO[C@H](c4ccc(C(F)(F)F)cc4)C3)C2)C1 (stereo in doubt) [19C*, 6-((3S,5S)-5-(4-(Trifluoromethyl)phenyl)tetrahydrofuran-3-yl)-2-thia-6-azaspiro[3.4]octane 2,2-dioxide]
38 | 15 | 1.3 | – | CC(C)n1nc(-c2cncc(C(F)(F)F)c2)cc1[C@@H]1CC[C@H](N2CCC3(C2)CS(=O)(=O)C3)C1 (single isomer, unassigned) [13B*]
39 | 12 | 130 | – | Cn1nc(C(F)(F)F)cc1[C@H]1CC[C@H](N2CCC[C@]3(CCS(=O)(=O)C3)C2)CC1 (single isomer, unassigned) [26B*]
